Reference: patent US9134327B2, “STAT3 and TYK2 as drug targets for neurodegenerative diseases” (Biotechnology Research Corporation Limited, priority 2008, dated 2015)

Assays:
STAT3 (P-Tyr, Tyr705) = assay: Tyrosine phosphorylation of STAT3 in cortical neurons, immunoblot; type: cell-based, rat; conditions: for inhibition of Aβ-induced tyrosine phosphorylation of STAT3: primary cortical neurons pretreated with inhibitor 2 hrs, then Aβ25-35 for 4 hrs or 24 hrs
Method: FIG. 2: Tyrosine phosphorylation of STAT3 is increased in cultured cortical neurons stimulated with Aβ25-35. Primary cortical neurons at 7 DIV were treated with Aβ25-35 (40 μM; H2O served as solvent control) for various times as indicated. Cell lysates were collected and subjected to immunoblotting using P-Tyr STAT3 and total STAT3 antibodies.
(§1) FIG. 4: Tyk2 is required for beta-amyloid peptide-induced tyrosine phosphorylation of STAT3 and neuronal cell death. A. Primary cortical neurons were pretreated with various inhibitors including a potent inhibitor of JAK (JAK inhibitor 1), a JAK2 inhibitor (AG490), a Src tyrosine kinase inhibitor (PP2) and a protein synthesis inhibitor (cycloheximide) for 2 hrs as indicated, followed by treatment with Aβ25-35 peptide for 4 hrs or 24 rs. The cell lysates were immunoblotted with P-Tyr STAT3 and total STAT3 antibody. B. Primary cortical neurons were treated with Aβ25-35. The cell lysates were immunoprecipitated using Tyk2 or JAK2 antibody, and then subjected to Western blot analysis for phospho-tyrosine (P-Tyr) antibody. C. Primary cortical neurons prepared from Tyk2^−/− mice were treated with Aβ25-35. The cell lysates were subjected to immunoblotting using P-Tyr STAT3, total STAT3 and caspase-3 antibody. Quantification analysis of fold change in tyrosine phosphorylated STAT3 and cleaved caspase-3 (bottom panels).
Cultured rat cortical neurons were used as a cell culture model to investigate the role of STAT3 tyrosine phosphorylation in AD. The cortical neurons (7 DIV) were treated with Aβ peptide 25-35.
Since Aβ induced tyrosine phosphorylation of STAT3, the next aim was to identify the upstream regulators of STAT3. Cortical neurons were pre-treated with different inhibitors prior to […] treatment. […] Cortical neurons were treated with Aβ peptide for 1 hr. Endogenous Tyk2 or JAK2 were immunoprecipitated by specific antibodies, and the precipitates were detected by monoclonal phospho-tyrosine antibody, 4G10.
Preparation of Brain Extracts, Cell Extracts, and Western Blots: Four Brain Parts including cortex, hippocampus, cerebellum and striatum were dissected from transgenic mice of various stages (from 2 months to 18 months) and kept on dry ice. Frozen brain tissues were homogenized in homogenizing buffer (25 mM Tris-HCl, pH 7.4, 150 mM NaCl, 1 mM EDTA, pH 7.4, 50 mM NaF) with various protease inhibitors. The supernatant was kept for Western Blotting and the pellets were reextracted using RIPA lysis buffer (150 mM NaCl, 1% (v/v) Nonidet P-40, 0.5% deoxycholic acid, 0.1% (w/v) SDS) containing various protease inhibitors (2 μg/ml aprotinin, 1 mM phenylmethylsulfonyl fluoride, 5 mM benzamidine, 1 mM sodium orthovanadate (NaOV), and 10 μg/ml soybean trypsin inhibitor). Primary cultured cortical neurons or PC12 cells were harvested and lysed in RIPA lysis buffer containing protease inhibitors.

iNOS gene expression = assay: iNOS mRNA in primary cortical neurons, real-time PCR; type: cell-based
Method: (§2) FIG. 5: Transcription activity of STAT3 in PC12 cells and iNOS RNA in cultured cortical neurons increases upon stimulation with Aβ25-35. A. PC12 cells were transfected with a STAT1 (pGAS-Luc) or STAT3 (pSTAT3-Luc) reporter gene construct together with an internal control plasmid (β-galactosidase-pCMV). The cells were differentiated by NGF for 4 days, and were then treated with Aβ25-35 or NGF (positive control) for 1 day. Luciferase activity was measured and normalized against the β-galactosidase activity in the samples. Results were normalized with β-galactosidase activity; mean±S.E., n=3; *, p<0.05. B. Primary cortical neurons at 7 DIV were pretreated with STAT3 inhibitor or JAK inhibitor I for 30 minutes, followed by Aβ25-35 (40 μM) treatment for 6 hours. Total RNA was collected and subjected to reverse transcription. The cDNA was then subjected to real-time PCR analysis using iNOS primers.
Primary cortical neurons were treated with Aβ peptide for 6 hr. […]
Quantitative RT-PCR: Total RNA was isolated from Aβ-treated cortical neurons using RNeasy mini kit (Qiagen) according to the manufacturer's instruction. […] Quantitative PCR was performed with specific primers targeting specific genes using Bio-Rad MX3000P real-time PCR system.

STAT1 = STAT1 luciferase reporter (pGAS-Luc) in PC12 cells; type: cell-based; conditions: PC12 cells differentiated by NGF 4 days, treated 1 day
Method: as §2
(§3) To further characterize if Aβ peptide effects STAT3 transcriptional activity, PC12 cells were transfected with a luciferase construct linked to the STAT3-response enhancer element (pSTAT3-Luc). The luciferase construct linked to the STAT1-response enhancer element (pGAS-Luc) was used as a control.

Tyk2 = Tyk2 tyrosine phosphorylation in cortical neurons, immunoprecipitation and phospho-tyrosine blot; type: cell-based; conditions: cortical neurons treated 1 hr; IP Tyk2, 4G10 blot
From the text: as §1
Since Aβ induced tyrosine phosphorylation of STAT3, the next aim was to identify the upstream regulators of STAT3. Cortical neurons were pre-treated with different inhibitors prior to iv treatment. […] Endogenous Tyk2 or JAK2 were immunoprecipitated by specific antibodies, and the precipitates were detected by monoclonal phospho-tyrosine antibody, 4G10.

STAT3 = STAT3 luciferase reporter (pSTAT3-Luc) in PC12 cells; type: cell-based; conditions: PC12 cells differentiated by NGF 4 days, treated 1 day
Method: as §2, §3

`N#C/C(=C/c1ccc(O)c(O)c1)C(=O)NCc1ccccc1` [AG490] was tested, and the “inhibition of Aβ-induced tyrosine phosphorylation of STAT3” value (shortened to “inhibition”) (STAT3 (P-Tyr, Tyr705)) was “did not exhibit similar inhibitory effects”.

With `CC(C)(C)c1nc2c3cc[nH]c(=O)c3c3cc(F)ccc3c2[nH]1` [JAK inhibitor 1] the “block of Aβ-induced increase in iNOS gene expression” value (iNOS gene expression; primary cortical neurons 7 DIV, 30 minutes pretreatment, then Aβ25-35 40 μM for 6 hours) was “blocked” and the “inhibition” value (STAT3 (P-Tyr, Tyr705)) was “completely inhibited”.

With `CC(C)(C)n1nc(-c2ccc(Cl)cc2)c2c(N)ncnc21` [PP2] the “inhibition” value (STAT3 (P-Tyr, Tyr705)) was “neither the Src kinase inhibitor PP2 nor the protein synthesis inhibitor cycloheximide affected”.

For `C[C@@H]1C[C@@H]([C@H](O)CC2CC(=O)NC(=O)C2)C(=O)[C@@H](C)C1` [cycloheximide], the “inhibition” value (STAT3 (P-Tyr, Tyr705)) was “neither the Src kinase inhibitor PP2 nor the protein synthesis inhibitor cycloheximide affected”.

“Aβ peptide 25-35: β-amyloid peptide fragment 25-35 used to stimulate neurons and PC12 cells (GSNKGAIIGLM; Amyloid-beta protein 42; UniProt P05067 696-706, looked up, fragment)” was tested, and the “iNOS gene expression level after treatment” value (iNOS gene expression; primary cortical neurons, 6 hr treatment) was “increased”, the “STAT1 promoter activity (pGAS-Luc luciferase)” value (STAT1) was “only induced the STAT3 promoter activity” and the “Tyk2 tyrosine phosphorylation after treatment” value (Tyk2) was “could be detected”. The “tyrosine phosphorylation of STAT3 induced by treatment” value (STAT3 (P-Tyr, Tyr705); cortical neurons 7 DIV, Aβ25-35 40 μM, up to 4 hrs) was “significant increase in tyrosine phosphorylation of STAT3” and the “STAT3 promoter activity (pSTAT3-Luc luciferase)” value (STAT3) was “only induced the STAT3 promoter activity”.

B1: NGF: growth factor used to differentiate PC12 cells; positive control in the reporter assay (protein, UniProt P25427 122-241, looked up)
Beta-nerve growth factor: SSTHPVFHMGEFSVCDSVSVWVGDKTTATDIKGKEVTVLGEVNINNSVFKQYFFETKCRAPNPVESGCRGIDSKHWNSYCTTTHTFVKALTTDDKQAAWRFIRIDTACVCVLSRKAARRG
With B1 the “STAT1 promoter activity (pGAS-Luc luciferase)” value (STAT1) was “induced the promoter activity of both STAT3 and STAT1” and the “STAT3 promoter activity (pSTAT3-Luc luciferase)” value (STAT3) was “induced the promoter activity of both STAT3 and STAT1”.
